The values below come from a melting point compilation (Tetko et al.; mined from patent text by program, amines drawn as free bases though some values may be those of a salt).

Where only a bound is given, the exact number is not on record here.

With `CCCNC(=O)C1(CCCCNc2ccc(Br)nc2)c2ccccc2-c2ccccc21`, the melting point lay within 67 to 69 °C. Molecule `C=CC(CC(=O)Nc1ccc(F)cc1)C(C)C` (configuration not stated) showed a melting point of 74 to 75 °C. Regarding `CCOc1cc2c(Nc3cc(OC)c(Cl)cc3Cl)c(C#N)cnc2cc1F`, the melting point was 184 to 186 °C.

On to `CC(C)(C)OC(=O)NNC(=O)c1ccc2ncsc2c1`, for which the melting point is 128 to 129 °C. Take `Cc1cc(F)ccc1N(C)C(=O)c1cccc(S(=O)(=O)N(C)c2ccc(Br)cc2)c1`: the melting point was in the range of 104 to 105 °C. The figure for `C[C@@H]1OCCN(c2cc(N3CCOCC3)nc(-n3c(N)nc4ccccc43)n2)[C@@H]1C` (relative stereo) is 118 to 123 °C; for `COc1cn(-c2ccc(-n3cc(F)c(F)c3)cc2OC(F)F)nc(-c2ccnn2-c2ccccc2)c1=O` it is 168 to 170 °C. In turn, `CN1CCN(CCCN2N=C3C(=Cc4ccccc4)CSCC3C2c2ccccc2)CC1` (configuration not stated) registered a melting point of 90.5 to 92.5 °C. Regarding `CC[C@H](C)[C@@H]1NC(=S)c2ccccc2/C1=C/C(=O)OC`, the melting point fell in the range of 193 to 196 °C. Take `CCCCCCCCCCCCCCCCCCS(=O)(=O)c1cc(C(=O)O)c2c(c1)c(=O)on2C`: the melting point lay within 177 to 179 °C.

Take `Cc1noc(C)c1COc1cc(-n2c(=O)cc(C(F)(F)F)n(C)c2=O)c(F)cc1Cl`: the melting point lay in the range of 120 to 123 °C. The figure for `C=CCN(C)S(=O)(=O)CC(=O)C=C(C)N` is 86 to 89 °C. For `CCOc1cc(C(=O)c2ccccn2)ccc1OCCO`, the melting point lay within 140 to 141 °C. Regarding `C=CCOc1cc(-c2ncnc(C(F)F)c2Cl)c(F)cc1Cl`, the melting point is 69 to 71 °C.

Molecule `c1ccc(SCCCSc2nnnn2-c2ccccc2)cc1` registered a melting point of 57 to 59 °C. `O=Cc1ccc2ccc(-c3ccccc3)nc2c1` gave a melting point of 108 °C.

`COC(=O)c1cc2ccnc(N)c2[nH]1` came in with a melting point of more than 300 °C.

`Cc1c(SCCCSCCO)ccnc1CNc1cnc2ccccc2c1` returned a melting point of 125 to 126 °C. `CCOC(=O)CCc1cn(Cc2ccc(OCc3ccccc3)cc2)nc1OCc1ccc(OCc2ccccc2)cc1` came in with a melting point of 98 to 99 °C. The molecule `O=c1[nH]c2c(c(=O)[nH]1)N=CCN2CCCCN1CCC(OC(c2ccccc2)c2ccccc2)CC1` displayed a melting point of 157 to 159 °C. For `COCCCNS(=O)(=O)Cc1cccc(Nc2cc(-c3ccccc3OC)ncn2)c1`, the melting point was 149 to 151 °C. For `CCOC(=O)C1=C(COCCN2CCN(c3nc(N)n(C)n3)CC2)NC(C)=C(C(=O)OC)C1c1ccccc1Cl` (configuration not stated), the melting point fell in the range of 92 to 96 °C. For the molecule `COc1ccc(Nc2ccn(C(C)=O)n2)cc1`, the melting point is 123 to 124 °C. The figure for `O=C(NNc1nc(C(F)(F)F)nc(-c2ccncc2)c1-c1ccc(F)cc1)C(F)(F)F` is 240 to 242 °C; for `CN(C)S(=O)(=O)N1CCN(C(=O)c2ccc(Nc3ccnc4cc(C(F)(F)F)ccc34)cc2)CC1` it is 223 to 224 °C.

In turn, `CCCCCCCCCCCCCCCCCCNC(=O)OCC(CO)NC(=O)OC` (configuration not stated) registered a melting point of 84 to 85 °C. The figure for `CC1(C)C=C(c2cccnc2)c2cc(C#N)ccc2OC1` is 150 °C.

As for `NC(=O)N1CC(c2ccccc2)c2ccccc21` (configuration not stated), the melting point lay within 144 to 145 °C. `Cc1ccc(S(=O)(=O)n2cc(Br)c(C)c2C=O)cc1` returned a melting point of 152 to 155 °C. Molecule `Cn1c2c(c3ccccc31)CC(OC(=O)c1ccccc1)CC2` (configuration not stated) had a melting point of 93 to 96 °C. In the case of `O=c1ccccn1[C@@H]1c2ccccc2OCC[C@H]1O` (relative stereo), the melting point lay within 232 to 234 °C. `C=CC1(O)CCC2(C)C(CCC3C2CCC2(C)C(OC)CCC32)C1` (configuration not stated) registered a melting point of 104 to 111 °C. The figure for `COC(=O)c1cc(O)cc(O[C@@H](C)CO)c1` is 133 °C; for `O=C(O)c1ccc(=O)n(NC(=O)c2cccnc2)c1` it is more than 250 °C. As for `O=[N+]([O-])c1cc(Cl)ccc1/C=C/c1ccc(Cl)cc1[N+](=O)[O-]`, the melting point was in the range of 247 to 248 °C.

`CC12CC3(C)CC(CO)(C1)CC(CO)(C2)C3` had a melting point of 158 to 161 °C. Consider `CN(C)c1ccc(/C=C/c2ccc(F)cc2F)cc1`, for which the melting point fell in the range of 139 to 140 °C.

The molecule `CCOC(=O)CNc1ccc2c(c1)CCC2` gave a melting point of 49 °C. Take `CCC1c2ccc(C=O)n2-c2ccc(F)cc2N1S(=O)(=O)c1ccc(O)c(C)c1` (configuration not stated): the melting point lay in the range of 192 to 194 °C. For `CSc1nccc(CC(=O)c2cccc(Br)c2)n1`, the melting point was 98 to 101 °C. The figure for `CCOC(=O)c1c(S(=O)(=O)O)nc(-c2ccccc2)c([N+](=O)[O-])c1C(=O)OCC` is 187 to 190 °C; for `C=CCC12CCN=C1C(Br)Cc1ccc(OC)cc12` (configuration not stated) it is 112 to 117 °C; for `COC(=O)[C@@H](O)[C@@H](OC(C)=O)[C@H](OC(C)=O)[C@H](C=O)OC(C)=O` it is 104 to 110 °C.

Regarding `O=[N+]([O-])c1cnc2cccnc2c1NCCOc1ccccc1`, the melting point is 107 to 108 °C.

The molecule `Cc1ccc(Nc2cc(-c3ccccc3)nc(-c3ccccc3)c2)cc1` showed a melting point of 125 °C. Take `CC(=O)S[C@H]1CNC(=S)C1`: the melting point fell in the range of 91 to 93 °C. Take `Cc1ccc(S(=O)(=O)CNC=O)cc1`: the melting point was in the range of 103 to 107 °C. In turn, `CN1CCN(Cc2ccc(NC(=O)c3ccc(Cl)c(C#Cc4ccc(NC5CC5)nn4)c3)cc2C(F)(F)F)CC1` came in with a melting point of 133 to 134 °C.

In turn, `O=C(OCc1ccccc1)c1ccc2cc(-c3ccc(CC(O)CO)c(C45CC6CC(CC(C6)C4)C5)c3)ccc2c1` (configuration not stated) showed a melting point of 200 °C. `OC1CSC(Oc2ccc(-c3ccnc(F)c3)nc2Cl)C(O)C1O` (configuration not stated) yielded a melting point of 195 °C. The figure for `CCCCCCCCCCCCCCCC(=O)OC(COCc1ccc(OC)cc1)COC(=O)CCCCCCCCCCCNC(=O)OCc1ccccc1` (configuration not stated) is 44 to 47 °C. For `N#Cc1c(C(=O)O)cnn1-c1ccc(Br)cc1`, the melting point is 209 to 211 °C. `N#CC1(C2CCCc3ccccc32)CC1` (configuration not stated) came in with a melting point of 91 to 93 °C.

Take `CCCCCCCCCCCCCCCCCCCCCC(=O)NN`: the melting point was 117 °C. In turn, `CN(C)CCCOc1ccc(-c2nnc(CSCCOc3ccccc3)n2-c2ccccc2)cc1` had a melting point of 120 to 123 °C.

As to `COC(=O)c1cccc([N+](=O)[O-])c1NCc1ccc(-c2ccccc2C#N)cc1`, the melting point is 140 to 141 °C.

Turning to `NC(=NCC(F)(F)F)Nc1ccnc(CCCCNC(=S)NCC(F)(F)F)n1`, the melting point is 142 to 145 °C.

Regarding `COc1ccc(CCOc2cccc(-c3cccc(C(=O)O)c3)c2)cc1OC`, the melting point was in the range of 100 to 102 °C. Take `N#Cc1ccccc1C(Cl)(Cl)Cl`: the melting point lay within 98.9 to 100 °C. Take `O=C1NC(=O)c2c1c(-c1ccccc1)cc1c2c2cc(O)ccc2n1CCCN1CCOCC1`: the melting point is 252 to 255 °C. `CC(=O)c1ccc(OCCCN2CCC(c3noc4cc(F)ccc34)CC2)c(CC(N)=O)c1`: the melting point lay within 108 to 110 °C. `N#Cc1c(N)cccc1[N+](=O)[O-]` registered a melting point of 196 to 198 °C. Take `O=C1CC(CSc2nc3ccccc3s2)C(=O)O1` (configuration not stated): the melting point fell in the range of 87 to 88 °C. `CNS(=O)(=O)OCCOc1ccccc1` gave a melting point of 66 to 68 °C. The figure for `Cc1sc2c(c1C(=O)CCCCl)C(=O)NCCC2` is 113 to 115 °C.

On to `CC(C)(C)NC(=O)c1cccc(C(=O)O)c1O`, for which the melting point lay in the range of 191 to 195 °C. In turn, `COc1ccccc1-c1ccc(C#N)c(=O)[nH]1` came in with a melting point of 236 to 238 °C. `COC(=O)[C@@H](Cc1c[nH]c2ccccc12)NS(=O)(=O)c1ccc(OC)cc1` gave a melting point of 120 to 122 °C. `COc1ccc(NN=C(Sc2ccc(Cl)cc2)C(C)=O)cc1` registered a melting point of 112 to 114 °C.

Turning to `O=C1NC(Cc2ccncc2)(Cc2ccncc2)C(=O)N1C12CC3CC(CC(C3)C1)C2`, the melting point is 284 to 286 °C.

Turning to `CCC(C)(C)c1cc(-n2nc3ccccc3n2)c(O)c(C(C)(C)CC)c1`, the melting point was 77 to 79 °C. With `CN1C(=O)N(c2ccc(Cl)cc2)S(=O)(=O)c2ccc(OCC3CCCCC3)cc21`, the melting point was 127 to 129 °C. For `COc1ccccc1C(CCNC(C)(C)C)c1cc(Cl)ccc1OC` (configuration not stated), the melting point was more than 260 °C. Consider `O=S1(=O)NCCOc2ccc(Br)cc21`, for which the melting point was determined as 129 °C. The figure for `N#Cc1nn(-c2c(Cl)cc(C(F)(F)F)cc2Cl)c(N)c1C(F)(F)F` is 191 to 193 °C; for `CCSc1nnc(-c2ccc(OC)cc2)c(-c2ccc(OC)cc2)n1` it is 118 to 120 °C; for `Nc1ccc(O)cc1/C=C/C(=O)CC(=O)/C=C/c1ccc(O)cc1` it is 186 to 192 °C. Consider `c1csc(-c2cnc(COc3ccc(CCCCn4ccnc4)cc3)o2)c1`, for which the melting point is 136 to 138 °C. `O=C(O)c1cc(C(F)(F)F)ccc1O` displayed a melting point of 149 to 151 °C.

`COc1cc(OC)nc(-c2c(C)[nH]c3c(C)cccc23)n1` registered a melting point of 145 to 147 °C. Molecule `CCCCOc1ccc2c(=O)c(-c3nnnn3C)cn(C)c2c1` returned a melting point of 187 to 190 °C. Consider `O=C1c2ccc(Cl)cc2C(O)N1CCBr` (configuration not stated), for which the melting point was 164 to 168 °C. `COc1ccc(-c2cc(C(F)F)nn2-c2ccc(S(N)(=O)=O)cc2)cc1`: the melting point lay within 133 to 135 °C.

`CC(C)(O)c1cnn2c(-c3ccc(F)c(-c4ccc(F)cn4)c3)cnc2n1` displayed a melting point of 222 °C. The molecule `O=C1NCc2c1cc1ccc3c(c1c2-c1ccc(F)cc1)OCC3` yielded a melting point of 302 to 305 °C. In turn, `CN(C)C(=O)Nc1ccc(O)c([N+](=O)[O-])c1` had a melting point of 142 °C. In turn, `CCCCCCCCCCc1ccnc(C(=O)NCC(=O)O)c1` gave a melting point of 79 to 81 °C. Molecule `CCCCc1ccccc1NC(C)=O` showed a melting point of 96.5 to 99.5 °C. `COc1ccc(Br)cc1-c1nc2ccc(OC(F)(F)F)cc2[nH]1` showed a melting point of 175 to 178 °C. `O=C(CCCCCC(=O)NCCc1c[nH]c2ccccc12)NO` came in with a melting point of 140 to 142 °C. Take `CC(C)(O)Cn1c(CO)nc2c(N)nc3ccccc3c21`: the melting point was 264 to 271 °C. `CC(c1c[nH]cn1)C(N)CO` (configuration not stated) gave a melting point of 168 °C.
